Assays:
[1] = test system: 5-hydroxytryptamine induced bronchoconstriction; assay: Inhibition of 5-hydroxytryptamine induced bronchoconstriction in anaesthetised, artificially respired guinea pig (Konzett-Rossler preparation); type: in vivo; settings: Cavia porcellus, intravenous
Procedure: 1. The compounds were examined for their ability to inhibit 5-hydroxytryptamine induced bronchoconstriction in the anaesthetised, artificially respired guinea pig (Konzett-Rossler preparation). The compounds were administered intravenously.

[2] = test system: bronchoconstriction induced by an histamine aerosol; assay: Protection of conscious guinea pigs against bronchoconstriction induced by histamine aerosol (Herxheimer test); type: in vivo, guinea pig; settings: 10 μg/ml, 2 minutes after dosing
Procedure: 2. The compounds were examined for their ability to protect conscious guinea pigs against bronchoconstriction induced by an histamine aerosol (Herxheimer test). In these experiments the compounds were administered by aerosol.

Structure (SMILES) | ED50 [1] [mg/kg] | increase in pre-convulsive coughing time [2] [%]
CCCCCCC(C)(O)CCN1C(=O)N(C)C(=O)C1CCCCCCCN(CCC(=O)OC)CCC(=O)OC (stereo not drawn) [Compound 6] | 0.079 | 
CCCCCCC(C)(O)CCN1C(=O)N(C)C(=O)C1CCCCCCC(N)=NO (stereo not drawn) [Compound 2, 1-(3'-hydroxy-3'-methyl-n-nonyl)-3-methyl-5-(6"-amidoxyl-n-hexyl)-hydantoin] | 0.032 | 47.5
CCCCCCC(C)(O)CCN1C(=O)N(C)C(=O)C1CCCCCCC(N)=O (stereo not drawn) [Compound 3, 1-(3'-hydroxy-3'-methyl-n-nonyl)-3-methyl-5-(6"-amidoyl-n-hexyl) hydantoin] | 0.108 | 107
CCCCCCC(C)(O)CCN1C(=O)N(C)C(=O)C1CCCCCCCN(CC(=O)OC)CC(=O)OC (stereo not drawn) [Compound 10, 1-(3'-hydroxy-3'-methyl-n-nonyl)-3-methyl-5-{7'-[N,N-bis(methoxycarbonylmethyl)amino]-n-heptyl}hydantoin] | 0.0805 | 
CCCCCCC(C)(O)CCN1C(=O)N(C)C(=O)C1CCCCCCCN (stereo not drawn) [Compound 1, 1-(3'-hydroxy-3'-methyl-n-nonyl)-3-methyl-5-(7"-amino-n-heptyl)-hydantoin] | 0.0023 | 
CCCCCCC(C)(O)CCN1C(=O)N(C)C(=O)C1CCCCCCCNCC(=O)OC (stereo not drawn) [Compound 9, 1-(3'-hydroxy-3'-methyl-n-nonyl)-3-methyl-5-5-[7'-(N-methoxycarbonylmethyl)amino-n-heptyl]-hydantoin] | 0.066 | 
CCCCCCC(C)(O)CCN1C(=O)N(C)C(=O)C1CCCCCCCNCCC(=O)OC (stereo not drawn) [Compound 5, 1-(3'-hydroxy-3'-methyl-n-nonyl)-3-methyl-5-(7"-(2'''-methoxycarbonylethyl)amino-n-heptyl) hydantoin] | 0.095 | 

Reference: US4315022A, “Terminal amino prostaglandin analogues” (Beecham Group Limited, priority 1979, dated 1982)
